Biological target: Aβ42 (Homo sapiens, UniProt P05067)
Test: Th-T (thioflavin-T) assay of Aβ42 aggregation
Assay type: biochemical
Settings: for Th-T assay plate reading, mean of three wells (Supplementary Fig. 47): source data, Ab alone and No Ab as controls

Sequence of Aβ42 (P05067 672-713): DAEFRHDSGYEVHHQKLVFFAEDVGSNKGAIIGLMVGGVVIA

- Th-T fluorescence, mean of three wells (Aβ42 aggregation time course, reading M117): 2.942
- Th-T fluorescence, mean of three wells (Aβ42 aggregation time course, reading M118): 2.9616
- Th-T fluorescence, mean of three wells (Aβ42 aggregation time course, reading M119): 2.929
- Th-T fluorescence, mean of three wells (Aβ42 aggregation time course, reading M120): 2.963
- Th-T fluorescence, mean of three wells (Aβ42 aggregation time course, reading M121): 2.95
- Th-T fluorescence, mean of three wells (Aβ42 aggregation time course, reading M122): 2.943
- Th-T fluorescence, mean of three wells (Aβ42 aggregation time course, reading M123): 2.95
- Th-T fluorescence, mean of three wells (Aβ42 aggregation time course, reading M124): 2.945
- Th-T fluorescence, mean of three wells (Aβ42 aggregation time course, reading M125): 2.938
- Th-T fluorescence, mean of three wells (Aβ42 aggregation time course, reading M126): 2.934
- Th-T fluorescence, mean of three wells (Aβ42 aggregation time course, reading M127): 2.935
- Th-T fluorescence, mean of three wells (Aβ42 aggregation time course, reading M128): 2.947
- Th-T fluorescence, mean of three wells (Aβ42 aggregation time course, reading M129): 2.9294
- Th-T fluorescence, mean of three wells (Aβ42 aggregation time course, reading M130): 2.914
- Th-T fluorescence, mean of three wells (Aβ42 aggregation time course, reading M131): 2.934
- Th-T fluorescence, mean of three wells (Aβ42 aggregation time course, reading M132): 2.934
- Th-T fluorescence, mean of three wells (Aβ42 aggregation time course, reading M133): 2.945
- Th-T fluorescence, mean of three wells (Aβ42 aggregation time course, reading M134): 2.942
- Th-T fluorescence, mean of three wells (Aβ42 aggregation time course, reading M135): 2.931
- Th-T fluorescence, mean of three wells (Aβ42 aggregation time course, reading M136): 2.912
- Th-T fluorescence, mean of three wells (Supplementary Fig. 47, reading M137): 2.914
- Th-T fluorescence, mean of three wells (Supplementary Fig. 47, reading M138): 2.931
- Th-T fluorescence, mean of three wells (Supplementary Fig. 47, reading M139): 2.919
- Th-T fluorescence, mean of three wells (Supplementary Fig. 47, reading M140): 2.936
- Th-T fluorescence, mean of three wells (Supplementary Fig. 47, reading M141): 2.944
- Th-T fluorescence, mean of three wells (Supplementary Fig. 47, reading M142): 2.9414
- Th-T fluorescence, mean of three wells (Supplementary Fig. 47, reading M143): 2.941
- Th-T fluorescence, mean of three wells (Supplementary Fig. 47, reading M144): 2.932
- Th-T fluorescence, mean of three wells (Supplementary Fig. 47, reading M145): 2.925
- Th-T fluorescence, mean of three wells (Supplementary Fig. 47 source data, measurement M37 of time course): 2.747
- Th-T fluorescence, mean of three wells (Supplementary Fig. 47 source data, measurement M38 of time course): 2.734
- Th-T fluorescence, mean of three wells (Supplementary Fig. 47 source data, measurement M39 of time course): 2.741
- Th-T fluorescence, mean of three wells (Supplementary Fig. 47 source data, measurement M40 of time course): 2.757
- Th-T fluorescence, mean of three wells (Supplementary Fig. 47 source data, measurement M41 of time course): 2.789
- Th-T fluorescence, mean of three wells (Supplementary Fig. 47 source data, measurement M42 of time course): 2.791
- Th-T fluorescence, mean of three wells (Supplementary Fig. 47 source data, measurement M43 of time course): 2.8204
- Th-T fluorescence, mean of three wells (Supplementary Fig. 47 source data, measurement M44 of time course): 2.818
- Th-T fluorescence, mean of three wells (Supplementary Fig. 47 source data, measurement M45 of time course): 2.833
- Th-T fluorescence, mean of three wells (Supplementary Fig. 47 source data, measurement M46 of time course): 2.86
- Th-T fluorescence, mean of three wells (Supplementary Fig. 47 source data, measurement M47 of time course): 2.867
- Th-T fluorescence, mean of three wells (Supplementary Fig. 47 source data, measurement M48 of time course): 2.874
- Th-T fluorescence, mean of three wells (Supplementary Fig. 47 source data, measurement M49 of time course): 2.883
- Th-T fluorescence, mean of three wells (Supplementary Fig. 47 source data, measurement M50 of time course): 2.863
- Th-T fluorescence, mean of three wells (Supplementary Fig. 47 source data, measurement M51 of time course): 2.8662
- Th-T fluorescence, mean of three wells (Supplementary Fig. 47 source data, measurement M52 of time course): 2.876
- Th-T fluorescence, mean of three wells (Supplementary Fig. 47 source data, measurement M53 of time course): 2.889
- Th-T fluorescence, mean of three wells (Supplementary Fig. 47 source data, measurement M54 of time course): 2.875
- Th-T fluorescence, mean of three wells (Supplementary Fig. 47 source data, measurement M55 of time course): 2.914
- Th-T fluorescence, mean of three wells (Supplementary Fig. 47 source data, measurement M56 of time course): 2.914
- Th-T assay plate reading, mean of three wells (Supplementary Fig. 47) (measurement M1): 0.5144
- Th-T assay plate reading, mean of three wells (Supplementary Fig. 47) (measurement M2): 0.4337
- Th-T assay plate reading, mean of three wells (Supplementary Fig. 47) (measurement M3): 0.4376
- Th-T assay plate reading, mean of three wells (Supplementary Fig. 47) (measurement M4): 0.4602
- Th-T assay plate reading, mean of three wells (Supplementary Fig. 47) (measurement M5): 0.5047
- Th-T assay plate reading, mean of three wells (Supplementary Fig. 47) (measurement M6): 0.5652
- Th-T assay plate reading, mean of three wells (Supplementary Fig. 47) (measurement M7): 0.6146
- Th-T assay plate reading, mean of three wells (Supplementary Fig. 47) (measurement M8): 0.6765
- Th-T assay plate reading, mean of three wells (Supplementary Fig. 47) (measurement M9): 0.8275
- Th-T assay plate reading, mean of three wells (Supplementary Fig. 47) (measurement M10): 1.067
- Th-T assay plate reading, mean of three wells (Supplementary Fig. 47) (measurement M11): 1.395
- Th-T assay plate reading, mean of three wells (Supplementary Fig. 47) (measurement M12): 1.75
- Th-T assay plate reading, mean of three wells (Supplementary Fig. 47) (measurement M13): 2.113
- Th-T assay plate reading, mean of three wells (Supplementary Fig. 47) (measurement M14): 2.291
- Th-T assay plate reading, mean of three wells (Supplementary Fig. 47) (measurement M15): 2.38
- Th-T assay plate reading, mean of three wells (Supplementary Fig. 47) (measurement M16): 2.421
- Th-T fluorescence, mean of three wells (reading M17, Supplementary Fig. 47 source data): 2.473
- Th-T fluorescence, mean of three wells (reading M18, Supplementary Fig. 47 source data): 2.4977
- Th-T fluorescence, mean of three wells (reading M19, Supplementary Fig. 47 source data): 2.533
- Th-T fluorescence, mean of three wells (reading M20, Supplementary Fig. 47 source data): 2.556
- Th-T fluorescence, mean of three wells (reading M21, Supplementary Fig. 47 source data): 2.585
- Th-T fluorescence, mean of three wells (reading M22, Supplementary Fig. 47 source data): 2.595
- Th-T fluorescence, mean of three wells (reading M23, Supplementary Fig. 47 source data): 2.641
- Th-T fluorescence, mean of three wells (reading M24, Supplementary Fig. 47 source data): 2.62
- Th-T fluorescence, mean of three wells (reading M25, Supplementary Fig. 47 source data): 2.6309
- Th-T fluorescence, mean of three wells (reading M26, Supplementary Fig. 47 source data): 2.664
- Th-T fluorescence, mean of three wells (reading M27, Supplementary Fig. 47 source data): 2.655
- Th-T fluorescence, mean of three wells (reading M28, Supplementary Fig. 47 source data): 2.667
- Th-T fluorescence, mean of three wells (reading M29, Supplementary Fig. 47 source data): 2.665
- Th-T fluorescence, mean of three wells (reading M30, Supplementary Fig. 47 source data): 2.687
- Th-T fluorescence, mean of three wells (reading M31, Supplementary Fig. 47 source data): 2.687
- Th-T fluorescence, mean of three wells (reading M32, Supplementary Fig. 47 source data): 2.686
- Th-T fluorescence, mean of three wells (reading M33, Supplementary Fig. 47 source data): 2.738
- Th-T fluorescence, mean of three wells (reading M34, Supplementary Fig. 47 source data): 2.752
- Th-T fluorescence, mean of three wells (reading M35, Supplementary Fig. 47 source data): 2.742
- Th-T fluorescence, mean of three wells (reading M36, Supplementary Fig. 47 source data): 2.736
- Th-T fluorescence, mean of three wells (time course, reading M57): 2.932
- Th-T fluorescence, mean of three wells (time course, reading M58): 2.915
- Th-T fluorescence, mean of three wells (time course, reading M59): 2.925
- Th-T fluorescence, mean of three wells (time course, reading M60): 2.927
- Th-T fluorescence, mean of three wells (time course, reading M61): 2.927
- Th-T fluorescence, mean of three wells (time course, reading M62): 2.927
- Th-T fluorescence, mean of three wells (time course, reading M63): 2.935
- Th-T fluorescence, mean of three wells (time course, reading M64): 2.936
- Th-T fluorescence, mean of three wells (time course, reading M65): 2.95
- Th-T fluorescence, mean of three wells (time course, reading M66): 2.938
- Th-T fluorescence, mean of three wells (time course, reading M67): 2.956
- Th-T fluorescence, mean of three wells (time-course reading M97, Supplementary Fig. 47 source data): 2.938
- Th-T fluorescence, mean of three wells (time-course reading M98, Supplementary Fig. 47 source data): 2.952
- Th-T fluorescence, mean of three wells (time-course reading M99, Supplementary Fig. 47 source data): 2.942
- Th-T fluorescence, mean of three wells (time-course reading M100, Supplementary Fig. 47 source data): 2.953
- Th-T fluorescence, mean of three wells (time-course reading M101, Supplementary Fig. 47 source data): 2.966
- Th-T fluorescence, mean of three wells (time-course reading M102, Supplementary Fig. 47 source data): 2.943
- Th-T fluorescence, mean of three wells (time-course reading M103, Supplementary Fig. 47 source data): 2.949
- Th-T fluorescence, mean of three wells (time-course reading M104, Supplementary Fig. 47 source data): 2.951
- Th-T fluorescence, mean of three wells (time-course reading M105, Supplementary Fig. 47 source data): 2.946
- Th-T fluorescence, mean of three wells (time-course reading M106, Supplementary Fig. 47 source data): 2.949
- Th-T fluorescence, mean of three wells (time-course reading M107, Supplementary Fig. 47 source data): 2.931
- Th-T fluorescence, mean of three wells (time-course reading M108, Supplementary Fig. 47 source data): 2.953
- Th-T fluorescence, mean of three wells (time-course reading M109, Supplementary Fig. 47 source data): 2.942
- Th-T fluorescence, mean of three wells (time-course reading M110, Supplementary Fig. 47 source data): 2.939
- Th-T fluorescence, mean of three wells (time-course reading M111, Supplementary Fig. 47 source data): 2.961
- Th-T fluorescence, mean of three wells (time-course reading M112, Supplementary Fig. 47 source data): 2.955
- Th-T fluorescence, mean of three wells (time-course reading M113, Supplementary Fig. 47 source data): 2.9565
- Th-T fluorescence, mean of three wells (time-course reading M114, Supplementary Fig. 47 source data): 2.9516
- Th-T fluorescence, mean of three wells (time-course reading M115, Supplementary Fig. 47 source data): 2.943
- Th-T fluorescence, mean of three wells (time-course reading M116, Supplementary Fig. 47 source data): 2.94
SMILES: CC(C)=CCC/C(C)=C/CC/C(C)=C/CC/C(C)=C/Cc1c(O)c(C)c(C)oc1=O [Compound 2]

From PMC7156458, “Synthetic biology based construction of biological activity-related library of fungal decalin-containing diterpenoid pyrones” (Nature Communications, 2020)
